# Activity calls are given as the source filed them. The calls are words filed in the database; no cut-off is given here.
# What was measured:
# [1] = biological target: T1, Bile acid receptor (Homo sapiens) (UniProt Q96RI1); assay: Activation of human FXR LBD expressed in HEK293T cells assessed as induction of receptor activation at 1 uM incubated for 12 to 14 hrs by luciferase reporter gene assay relative to GW4064; type: cell-based; conditions: HEK-293T
# T1 sequence (whole entry): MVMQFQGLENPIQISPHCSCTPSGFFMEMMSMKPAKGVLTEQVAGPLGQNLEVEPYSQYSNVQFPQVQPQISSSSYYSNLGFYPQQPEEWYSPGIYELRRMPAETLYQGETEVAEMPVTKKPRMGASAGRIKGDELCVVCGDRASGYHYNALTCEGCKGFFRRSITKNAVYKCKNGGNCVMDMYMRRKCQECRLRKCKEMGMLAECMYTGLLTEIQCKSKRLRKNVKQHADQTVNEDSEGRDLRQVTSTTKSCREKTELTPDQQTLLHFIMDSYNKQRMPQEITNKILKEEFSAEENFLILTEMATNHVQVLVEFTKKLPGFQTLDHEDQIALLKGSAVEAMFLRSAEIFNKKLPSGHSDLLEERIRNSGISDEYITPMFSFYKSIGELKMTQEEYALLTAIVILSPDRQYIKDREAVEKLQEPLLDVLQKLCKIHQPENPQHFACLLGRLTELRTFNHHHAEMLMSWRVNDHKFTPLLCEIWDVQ
# Bile acid receptor = biological target: T2, Bile acid receptor (Homo sapiens, UniProt Q96RI1); assay: Activation of human FXR LBD expressed in HEK293T cells assessed as induction of receptor activation incubated for 12 to 14 hrs by luciferase reporter gene assay; type: cell-based, HEK-293T
# T2 sequence (Q96RI1 whole entry): T1 sequence (whole entry)
# [2] = biological target: T3, Peroxisome proliferator-activated receptor delta (Homo sapiens) (UniProt Q03181); assay: Activation of human PPAR-delta LBD expressed in HEK293T cells assessed as induction of receptor activation at 1 uM incubated for 12 to 14 hrs by luciferase reporter gene assay relative to L165,041; type: cell-based; conditions: HEK-293T
# T3 sequence (whole entry): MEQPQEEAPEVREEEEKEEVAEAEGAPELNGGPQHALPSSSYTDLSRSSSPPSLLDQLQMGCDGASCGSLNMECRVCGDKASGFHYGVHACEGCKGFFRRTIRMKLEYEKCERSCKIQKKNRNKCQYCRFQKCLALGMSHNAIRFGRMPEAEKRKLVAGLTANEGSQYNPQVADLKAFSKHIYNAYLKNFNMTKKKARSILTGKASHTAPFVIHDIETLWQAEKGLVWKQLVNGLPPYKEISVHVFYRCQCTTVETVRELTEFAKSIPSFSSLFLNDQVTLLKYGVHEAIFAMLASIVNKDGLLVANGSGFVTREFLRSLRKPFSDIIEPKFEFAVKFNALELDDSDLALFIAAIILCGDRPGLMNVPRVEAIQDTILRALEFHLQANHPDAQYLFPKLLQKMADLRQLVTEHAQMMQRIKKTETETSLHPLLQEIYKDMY
# [3] = biological target: T4, Peroxisome proliferator-activated receptor delta (Homo sapiens, UniProt Q03181); assay: Activation of human PPAR-delta LBD expressed in HEK293T cells assessed as induction of receptor activation incubated for 12 to 14 hrs by luciferase reporter gene assay; type: cell-based, HEK-293T
# T4 sequence (Q03181 whole entry): T3 sequence (whole entry)
# [4] = biological target: T3, Peroxisome proliferator-activated receptor delta (Homo sapiens); assay: Activation of human PPAR-delta LBD expressed in HEK293T cells assessed as induction of receptor activation at 20 uM incubated for 12 to 14 hrs by luciferase reporter gene assay; type: cell-based; conditions: HEK-293T
# [5] = biological target: T1, Bile acid receptor (Homo sapiens); assay: Activation of human FXR LBD expressed in HEK293T cells assessed as induction of receptor activation at 20 uM incubated for 12 to 14 hrs by luciferase reporter gene assay; type: cell-based; conditions: HEK-293T
# [6] = biological target: T3, Peroxisome proliferator-activated receptor delta (Homo sapiens); assay: Activation of human PPAR-delta LBD expressed in HEK293T cells assessed as induction of receptor activation at 30 uM incubated for 12 to 14 hrs by luciferase reporter gene assay; type: cell-based; conditions: HEK-293T
# [7] = biological target: T1, Bile acid receptor (Homo sapiens); assay: Activation of human FXR LBD expressed in HEK293T cells assessed as induction of receptor activation at 30 uM incubated for 12 to 14 hrs by luciferase reporter gene assay; type: cell-based; conditions: HEK-293T
# [8] = biological target: T3, Peroxisome proliferator-activated receptor delta (Homo sapiens); assay: Activation of human PPAR-delta LBD expressed in HEK293T cells assessed as induction of receptor activation at 1 uM incubated for 12 to 14 hrs by luciferase reporter gene assay; type: cell-based; conditions: HEK-293T
# HepG2 = assay: Toxicity in human HepG2 cells assessed as reduction in cell viability up to 100 uM incubated for 48 hrs by WST1 assay; type: cell-based; conditions: hepg2, 48 h
# [9] = biological target: T3, Peroxisome proliferator-activated receptor delta (Homo sapiens); assay: Activation of human PPAR-delta LBD expressed in HEK293T cells assessed as induction of receptor activation up to 10 uM incubated for 12 to 14 hrs by luciferase reporter gene assay; type: cell-based; conditions: HEK-293T
# [10] = Aqueous solubility in pH 8 buffer by HPLC analysis; type: physicochemical
# [11] = biological target: T1, Bile acid receptor (Homo sapiens); assay: Activation of human FXR LBD expressed in HEK293T cells assessed as induction of receptor activation at 1 uM incubated for 12 to 14 hrs by luciferase reporter gene assay; conditions: HEK-293T
# [12] = Stability in Sprague-Dawley rat liver microsomes assessed as remaining parent compound level at 10 uM presence of NADPH regenerating system by HPLC analysis; type: ADME, Microsome; conditions: read-out: Stability
SMILES,%max [1] [%],EC50 (Bile acid receptor) [µM],%max [2] [%],EC50 [3] [µM],also measured
CC(C)c1onc(-c2ccccc2)c1COc1ccc(CCCC(=O)O)cc1,11,31,8.7,0.9,
CC(C)c1onc(-c2c(Cl)cccc2Cl)c1COc1ccc(COc2ccc(CC(=O)O)cc2)cc1,37,2,17,3.1,
CC(C)c1onc(-c2ccccc2Cl)c1COc1ccc(COc2ccc(C(C)(C)C(=O)O)cc2)cc1,,,,,Activity [4]: inactive; Activity [5]: inactive
CC(C)c1onc(-c2ccccc2C(F)(F)F)c1COc1ccc(CCCC(=O)O)cc1,37,4.4,,> 30,
CC(C)c1onc(-c2ccccc2)c1COc1ccc(COc2ccc(C(=O)O)cc2)cc1,5.1,2.3,,> 30,
CC(C)c1onc(-c2c(Cl)cccc2Cl)c1COc1ccc(COc2ccc(CC(=O)O)cc2)c(Cl)c1,117,0.8,15,1.8,
Cc1onc(-c2ccccc2)c1COc1ccc(CCCC(=O)O)cc1,,,,,Activity [6]: inactive; Activity [7]: inactive
CC(C)c1onc(-c2c(Cl)cccc2Cl)c1COc1ccc(CNc2ccc(CC(=O)O)cc2)cc1,29,1.6,15,3.6,
CC(C)c1onc(-c2ccccc2Cl)c1COc1ccc(CCCC(=O)O)cc1,16,3.8,9,0.8,
CC(C)c1onc(-c2ccccc2)c1COc1ccc(COc2ccc(CC(=O)O)cc2)cc1,11,11,54,4.3,
CC(C)c1onc(-c2ccccc2)c1COc1ccc(CCCCCC(=O)O)cc1,,,,> 10,Activity [5]: inactive
CC(C)c1onc(-c2ccccc2)c1COc1ccc(CCCCC(=O)O)cc1,,> 30,,> 30,
Cc1cc(NCc2ccc(OCc3c(-c4c(Cl)cccc4Cl)noc3C(C)C)cc2)ccc1CC(=O)O,37,1.2,15,9,
CCCc1c(OCCCOc2ccc(OCC(=O)O)cc2)ccc(C(C)=O)c1O,,,,,Activity [8]: Active
CC(C)c1onc(-c2ccccc2)c1COc1ccc(Oc2ccc(C(=O)O)cc2)cc1,13,11,,,Activity [6]: inactive
CC(C)c1onc(-c2ccccc2)c1COc1ccc(COc2cccc(C(=O)O)c2)cc1,,,,> 30,Activity [7]: inactive
CC(C)c1onc(-c2ccccc2Cl)c1COc1ccc(COc2ccc(OCC(=O)O)cc2)cc1,17,4.7,15,7.2,
Cc1cccc(C)c1-c1noc(C(C)C)c1COc1ccc(CCCC(=O)O)cc1,15,7.7,,,Activity [6]: inactive
CC(C)c1onc(-c2ccccc2Cl)c1COc1ccc(COc2ccc(CC(=O)O)cc2)cc1,9,2.5,23,2,
CC(C)c1onc(-c2c(Cl)cccc2Cl)c1COc1ccc(CCCC(=O)O)cc1,51,6,15,0.7,
CC(C)c1onc(-c2ccccc2)c1COc1ccc(COc2ccc(CCC(=O)O)cc2)cc1,,,32,11,Activity [5]: inactive
CC(C)c1onc(-c2c(Cl)cccc2Cl)c1COc1ccc(/C=C/c2cccc(C(=O)O)c2)c(Cl)c1,,,,,Activity (HepG2): Non-Toxic; Activity [9]: inactive; solubility [10]: < 0.1 µg/mL; Activity [11]: Active; remaining at 10 µM [12]: 10%
